In US4044043A, “Derivatives of 9-oxo-13-trans-prostenoic acid esters” (American Cyanamid Company, priority 1975, dated 1977):
Values after ≈ are worked out from the molar mass of the structure shown. Where two headings read alike, the source gives them in different places.

Experiments:
[1] = tested on: Mycobacterium smegmatis ATCC 606; assay: agar-dilution streak-plate antimicrobial assay; format: cell-based; details: Mycolicibacterium smegmatis, ATCC606, read-out: Minimal inhibitory conc. (6)
How it was run: (§1)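 Complete absence of visible growth on the streak defines the MIC, given in µg/ml. Each compound, made up at 2.5 mg/ml and diluted two-fold, is incorporated 1:10 into organism-appropriate nutrient agar before loop inoculation and incubation.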

[2] = tested on: Trichophyton tonsurans NIH 662; assay: agar-dilution streak-plate antimicrobial assay; format: cell-based; details: NIH662, read-out: Minimal inhibitory conc. (3)
How it was run: as §1

[3] = tested on: Streptococcus pyogenes C 203; assay: agar-dilution streak-plate antimicrobial assay; format: cell-based; details: C203, read-out: Minimal inhibitory conc. (8)
How it was run: as §1

[4] = tested on: Trichophyton mentagrophytes E 11; assay: agar-dilution streak-plate antimicrobial assay; format: cell-based; details: E11, read-out: Minimal inhibitory conc. (4)
How it was run: as §1

diastolic blood pressure = assay: Prostaglandin-like hypotensive activity in anesthetized rats (minimal dose for about 10 mm. decrease in diastolic blood pressure); format: in vivo, Male Wistar strain rats; details: Rattus norvegicus; intravenous; decrease of about 10 mm. in diastolic blood pressure
How it was run: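 Male Wistar rats (~250 g), pentobarbital 30 mg./kg. i.v. and hexamethonium 2 mg./kg. i.v., iliac artery cannulated for blood pressure. Compounds in saline-Tween 80 given i.v. at 0.1–10.0 mg./kg.; value is the minimal dose giving ~10 mm. drop in diastolic pressure.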

[5] = tested on: Microsporum gypseum ATCC 14683; assay: agar-dilution streak-plate antimicrobial assay; format: cell-based; details: Nannizzia gypsea, ATCC14683, read-out: Minimal inhibitory conc. (2)
How it was run: as §1

[6] = tested on: dl-PGE1-induced contraction of gerbil colon; assay: Inhibition of dl-PGE1-Induced Contraction of Gerbil Colon (prostaglandin antagonist action); format: cell-based, gerbils (Meriones unguiculatus); details: Meriones unguiculatus, 1 min; sub-maximal challenge, 20 ng./ml. dl-PGE1; 50% inhibition of maximum response; read-out: ID50 vs. 20 ng. of PGE1/ml.
How it was run: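 Ascending colon from male gerbils, held in De Jalon's solution at 37 °C under 95% O2/5% CO2 with 0.5 g resting tension, contraction recorded isometrically. 1 min compound exposure, then 1 min dl-PGE1 at 200 ng/ml (maximal) or 20 ng/ml (sub-maximal). Approximate ID50 taken from a concentration series against the preceding agonist-only cycle.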

[7] = tested on: bronchospasms elicited by acetylcholine; assay: Bronchodilator Activity (Konzett Assay) against acetylcholine; format: in vivo, guinea pigs; details: Cavia porcellus; three logarithmic cumulative intravenous doses
Experimental: (§2) Bronchodilator activity was determined in guinea pigs against bronchospasms elicited by intravenous injections of 5-hydroxytryptamine, histamine or acetylcholine by the Konzett procedure. [See J. Lulling, P. Lievens, F. El Sayed and J. Prignot, Arzeneimittel-Forschung, 18, 995 (1968)]. In Table IIIC which follows bronchodilator activity for representative compounds of this invention against one or more of the three spasmogenic agents is expressed as an ED50 determined from the results obtained with three logarithmic cumulative intravenous doses.

[8] = tested on: bronchospasms elicited by 5-hydroxytryptamine; assay: Bronchodilator Activity (Konzett Assay) against 5-hydroxytryptamine; format: in vivo, guinea pigs; details: Cavia porcellus; three logarithmic cumulative intravenous doses
Experimental: as §2

[9] = tested on: bronchospasms elicited by histamine; assay: Bronchodilator Activity (Konzett Assay) against histamine; format: in vivo, guinea pigs; details: Cavia porcellus; three logarithmic cumulative intravenous doses
Experimental: as §2

gastric acid secretion [10] = assay: Inhibition of basal Gastric Acid Secretion (Acute Gastric Fistula Rat); format: in vivo, Female Sprague-Dawley rats; details: 10 mg./kg. intraduodenal
Experimental: Inhibition of basal gastric acid secretion was determined in the acute gastric fistula rat as follows. Female Sprague-Dawley rats (Charles River Laboratories) weighing 140-160 grams are fasted in individual cages for 18-24 hours. The rats are then lightly anesthetized with ether and their front teeth extracted to avoid destruction of the plastic cannula. A midline incision is then made and the stomach and duodenum exposed. A flanged polyvinyl tube is inserted into the fundic portion of the stomach and secured with a purse string suture line using 4-0 Mersilene. The rat is then dosed by injection of the compound into the duodenum (1.0 ml. per 100 gram body weight). After dosing, the abdominal wall and skin are closed using metal wound clips. The rat is replaced in a cage containing a longitudinal slit to allow the polyvinyl tube to hang freely. An 8 ml. plastic collecting tube is attached to the flanged cannula and hangs freely below the cage. The first 30 minute sample is discarded designating this time as zero. The collecting tube is attached again and samples removed at the end of 60 and 120 minutes. Those samples are referred to as "A" and "B" in the table. The hourly samples are then transferred to a 15 ml. centrifuge tube and centrifuged for 5-10 minutes. Total and sediment volume are then recorded with the supernatant volume being used as volume of secretion. A 1 ml. or less aliquot is then removed and placed in a 50 ml. beaker containing 10 ml. of distilled water. This sample is then titrated using 0.01N NaOH to pH 7.0 using a Beckman zeromatic pH meter. Volume, titratable acidity (meq/L) and total acid output (μ eq/hour) are recorded. Percent inhibition is determined by comparison with the appropriate control. Groups of three rats were used. All compounds are administered in vehicle (0.5% methocel, 0.4% Tween 80, saline) at a constant volume of 1 ml./100 gram rat. Samples were sonicated with care to prevent overheating.

gastric acid secretion [11] = assay: Inhibition of Gastric Acid Secretion (Pylorous-Ligated Rat), Shay rat procedure; format: in vivo, rats (male, CFE strain); details: read-out: % Inhibition of Control Gastric Acid Secretion
How it was run: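 Male CFE rats were fasted 48 h, then pylorus-ligated under ether. Gastric contents were titrated with 0.02N or 0.04N NaOH to pH 8.4 for acid output, and ≥20% inhibition counted as active.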

[12] = 2 h, B: 120 minute collection, read-out: % Inhibition Total Acid Output
[13] = 2 h, B: 120 minute collection, read-out: % Inhibition Total Acidity
[14] = 1 h, A: 60 minute collection, read-out: % Inhibition Total Acid Output
[15] = 1 h, A: 60 minute collection, read-out: % Inhibition Total Acidity

Compound | MIC [1] [µg/mL] | MIC [2] [µg/mL] | MIC [3] [µg/mL] | MIC [4] [µg/mL] | IC50 [6] [µg/mL] | minimal effective dose (diastolic blood pressure) [mg/kg] | inhibition in vivo at 100 mg/kg (gastric acid secretion [11]; 100 mg./kg. intraduodenal) [%] | further results
CCSCCC/C=C/[C@@H]1CCC(=O)[C@H]1CCCCCCC(=O)O (relative stereo) [9-oxo-18-thia-13-trans-prostenoic acid] | 250 (≈ 734 µM) | 125 (≈ 367 µM) |  | 125 (≈ 367 µM) | 1 (≈ 2.94 µM) | 0.2 |  | MIC [5]: 250 µg/mL (≈ 734 µM); ED50 [7]: > 10 mg/kg; ED50 [8]: 1.99 mg/kg; ED50 [9]: 1.38 mg/kg
O=C(O)CCCCCC[C@H]1C(=O)CC[C@@H]1/C=C/CCCCCCS (relative stereo) [20-mercapto-9-oxo-13-trans-prostenoic acid] | 125 (≈ 353 µM) | 250 (≈ 705 µM) | 6 (≈ 16.9 µM) | 250 (≈ 705 µM) |  |  |  | MIC [5]: 125 µg/mL (≈ 353 µM)
O=C(O)CCCC/C=C/[C@@H]1CCC(=O)[C@H]1CCCCCCC(=O)O (relative stereo) [20-carboxy-9-oxo-18,19-dinor-13-trans-prostenoic acid] |  |  |  |  | 35 (≈ 103 µM) | 8 |  | inhibition in vivo at 10 mg/kg (gastric acid secretion [10]; [12]): 25%; inhibition in vivo at 10 mg/kg (gastric acid secretion [10]; [13]): 30%
CCCCCC/C=C/[C@@H]1CCC(=O)[C@H]1CCCCOCC(=O)OCC (relative stereo) [ethyl 9-oxo-3-oxa-13-trans-prostenoate, ethyl 3-oxa-9-oxo-13-trans-prostenoate] |  |  |  |  |  |  | 89 | inhibition in vivo at 10 mg/kg (gastric acid secretion [10]; [14]): 40%; inhibition in vivo at 10 mg/kg (gastric acid secretion [10]; [15]): 37%; inhibition in vivo at 50 mg/kg (gastric acid secretion [11]; 50 mg./kg. intraduodenal): 48%; inhibition in vivo at 109 mg/kg (gastric acid secretion [11]; 109 mg./kg., 1 hr. pre-ligation): 59%

The next lines start with results.

MIC [1] [µg/mL] | MIC [2] [µg/mL] | MIC [3] [µg/mL] | MIC [4] [µg/mL] | IC50 [6] [µg/mL] | Compound | minimal effective dose (diastolic blood pressure) [mg/kg] | inhibition in vivo at 100 mg/kg (gastric acid secretion [11]; 100 mg./kg. intraduodenal) [%] | further results
125 (≈ 446 µM) | 250 (≈ 892 µM) | 125 (≈ 446 µM) | 125 (≈ 446 µM) |  | CCCCCC/C=C/[C@H]1CCC(=O)[C@@H]1CC(=O)OCC (relative stereo) [ethyl 9-oxo-3,4,5,6,7-pentanor-13-trans-prostenoate] | 8 |  | 
62 (≈ 143 µM) | 250 (≈ 576 µM) |  | 250 (≈ 576 µM) |  | CCOC(=O)CCCCCC[C@H]1C(=O)CC[C@@H]1/C=C/CCCI (relative stereo) [ethyl 20-iodo-9-oxo-17,18,19-trinor-13-trans-prostenoate] |  |  | 
250 (≈ 729 µM) |  |  | 250 (≈ 729 µM) |  | CCOC(=O)CCCCCC[C@H]1C(=O)CC[C@@H]1/C=C/CCCCl (relative stereo) [ethyl 20-chloro-9-oxo-17,18,19-trinor-13-trans-prostenoate] | 0.2 to 1 | 61 | 
 |  |  |  | 10 to 25 (≈ 26.4 to 66 µM) | CCCCCC/C=C/[C@H]1CCC(=O)[C@@H]1CCCCCC(CC)C(=O)OCC (stereo partly drawn) [ethyl 9-oxo-2-ethyl-13-trans-prostenoate, ethyl 2-ethyl-9-oxo-13-trans-prostenoate] |  | 42 | inhibition in vivo at 10 mg/kg (gastric acid secretion [10]; [14]): 56%; inhibition in vivo at 10 mg/kg (gastric acid secretion [10]; [15]): 66%; inhibition in vivo at 10 mg/kg (gastric acid secretion [10]; [12]): 48%; inhibition in vivo at 10 mg/kg (gastric acid secretion [10]; [13]): 49%
6 (≈ 18.5 µM) |  | 13 (≈ 40.1 µM) |  |  | CCCCCC/C=C/[C@H]1CCC(O)[C@@H]1CCCCC(=O)OCC (stereo partly drawn) [ethyl 9-hydroxy-6,7-dinor-13-trans-prostenoate] |  |  | 
250 (≈ 810 µM) |  |  | 250 (≈ 810 µM) |  | CCC/C=C/[C@H]1CCC(=O)[C@@H]1CCCCCCC(=O)OCC (relative stereo) [ethyl 9-oxo-18,19,20-trinor-13-trans-prostenoate] |  | 94 | inhibition in vivo at 100 mg/kg (gastric acid secretion [11]; 100 mg./kg., 1 hr. pre-ligation): 73%; inhibition in vivo at 8 mg/kg (gastric acid secretion [11]; sc, 8 mg./kg. subcutaneous): 40%
